From patent publication US11236105B2, “Bicyclic compounds and methods of use” (BioTheryX, Inc., priority 2017, dated 2022)

Tested on: TNF-α
Assay: Cell-Based TNFα Inhibition Assay (PBMCs induced with LPS, Meso Scale)
Details: PBMC, PBMCs pretreated 1 hr, induced with LPS 100 ng/mL 18-24 hrs, supernatant TNF-α; for inhibition at 0.1 µM: 0.1 μM compound; for inhibition at 1 µM: 1 μM compound
Description: Cell-Based TNFα Inhibition Assay
PBMCs induced with LPS (lipopolysaccharide): Frozen […] blood mononuclear cells (PBMCs) are purchased from AllCells. Cells are quick thawed, washed once with Roswell Park Memorial Institute medium (RPMI)-1640/10% FBS/1% Penicillin/1% Streptomycin and plated in 96 well plates at 200,000 cells per well. Cells are pretreated with DMSO only or the indicated compounds for 1 hr and then induced with […] for 18-24 hrs. The supernatant is analyzed for TNF-α using Meso Scale assay according to manufacturer's protocol. The negative control wells are treated with DMSO. Compound activity is measured as a percentage of the DMSO control.

Compound	inhibition at 0.1 µM [%]	inhibition at 1 µM [%]
CC(=O)Nc1scc2c1C(=O)N([C@H](CS(C)(=O)=O)c1ccc3c(c1)OCO3)C2=O [Compound 12, N-(5-(1-(benzo[d][1,3]dioxol-5-yl)-2-(methylsulfonyl)ethyl)-4,6-dioxo-5,6-dihydro-4H-thieno[3,4-c]pyrrol-1-yl)acetamide]	< 20	< 20
CCOc1cc([C@@H](CS(=O)(=O)N(C)C)N2C(=O)c3csc(NC(C)=O)c3C2=O)ccc1OC [Compound 15, (S)—N-(5-(2-(N,N-dimethylsulfamoyl)-1-(3-ethoxy-4-methoxyphenyl)ethyl)-4,6-dioxo-5,6-dihydro-4H-thieno[3,4-c]pyrrol-1-yl)acetamide]	< 20	< 20
COCC(=O)Nc1csc2c1C(=O)N([C@H](CS(C)(=O)=O)c1ccc3c(c1)OCO3)C2=O [Compound 25, N-(5-(1-(benzo[d][1,3]dioxol-5-yl)-2-(methylsulfonyl)ethyl)-4,6-dioxo-5,6-dihydro-4H-thieno[2,3-c]pyrrol-3-yl)-2-methoxy acetamide]	< 20	20 to 40
